This note sets out measurements from ChEMBL document CHEMBL4024786, “In Silico Fragment-Based Design Identifies Subfamily B1 Metallo-β-lactamase Inhibitors” (J Med Chem, 2018).

A word on the IC50: it is the concentration at which inhibition is half-maximal. By Kd is commonly meant the concentration at which binding is half-saturated.

Series [1] in a line: Inhibition of recombinant bacterial IMP-1 expressed in Escherichia coli BL21 (DE3) cells using FC4 as substrate preincubated for 10 mins prior to substrate addition in presence of Triton X-100 by fluorescence-based assay. Also noted: species or system Bacteria.
Series [2] in a line: Inhibition of recombinant bacterial VIM-2 expressed in Escherichia coli BL21 (DE3) cells using FC4 as substrate preincubated for 10 mins prior to substrate addition in presence of Triton X-100 by fluorescence-based assay. Also noted: species or system Bacteria.
Series [3] in a line: Inhibition of recombinant bacterial NDM-1 expressed in Escherichia coli BL21 (DE3) cells using imipenem as substrate in presence of Triton X-100 by spectrophotometric analysis. Also on record: species or system Bacteria.
Another series has as its system Liver. Put plainly: Drug metabolism in human liver microsomes. In kind it is ADME, microsome. (Liver microsomes are vesicles of endoplasmic reticulum, rich in cytochrome P450 enzymes.)
Series [4] in a line: Aqueous solubility of the compound in phosphate buffer at pH 7.0. The series is classed as physicochemical.
For series [5], the system named is Escherichia coli str. K-12 substr. MG1655. The series can be described thus: Inhibition of NDM-1 in Escherichia coli MG1655 assessed as potentiation of meropenem induced antibacterial activity by measuring meropenem MIC at 100 ug/ml after 18 to 24 hrs by broth microdilution method (reference value: >128 ug/ml). (Dilution methods test growth across graded concentrations, often in twofold steps.)

The target of a further series is T1, 5' exonuclease Apollo (Homo sapiens, UniProt Q9H816).
T1 sequence (Q9H816 whole entry): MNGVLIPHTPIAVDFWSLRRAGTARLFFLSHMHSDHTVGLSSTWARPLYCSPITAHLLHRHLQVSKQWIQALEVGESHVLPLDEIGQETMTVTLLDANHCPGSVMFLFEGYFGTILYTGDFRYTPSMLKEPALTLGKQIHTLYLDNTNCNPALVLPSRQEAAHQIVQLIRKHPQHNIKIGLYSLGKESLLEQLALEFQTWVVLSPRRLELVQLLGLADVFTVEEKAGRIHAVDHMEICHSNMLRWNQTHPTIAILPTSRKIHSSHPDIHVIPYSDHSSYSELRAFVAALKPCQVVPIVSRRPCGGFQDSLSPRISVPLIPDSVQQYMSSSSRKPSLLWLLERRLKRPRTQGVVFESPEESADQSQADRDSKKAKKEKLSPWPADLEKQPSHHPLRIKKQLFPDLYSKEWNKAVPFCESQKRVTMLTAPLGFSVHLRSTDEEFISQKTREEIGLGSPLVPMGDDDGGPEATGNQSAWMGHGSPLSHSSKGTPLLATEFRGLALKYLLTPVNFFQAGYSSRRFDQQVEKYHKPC
Put plainly: Inhibition of human DCLRE1B.

In series [6] the target is Metallo-beta-lactamase type 2 (Klebsiella pneumoniae) (UniProt C7C422). The series can be described thus: Inhibition of NDM-1 in Klebsiella pneumoniae ATCC 5055 assessed as potentiation of meropenem induced antibacterial activity by measuring meropenem MIC at 100 ug/ml after 18 to 24 hrs by broth microdilution method (reference value: >128 ug/ml).
Metallo-beta-lactamase type 2 (Klebsiella pneumoniae), sequence (C7C422 whole entry): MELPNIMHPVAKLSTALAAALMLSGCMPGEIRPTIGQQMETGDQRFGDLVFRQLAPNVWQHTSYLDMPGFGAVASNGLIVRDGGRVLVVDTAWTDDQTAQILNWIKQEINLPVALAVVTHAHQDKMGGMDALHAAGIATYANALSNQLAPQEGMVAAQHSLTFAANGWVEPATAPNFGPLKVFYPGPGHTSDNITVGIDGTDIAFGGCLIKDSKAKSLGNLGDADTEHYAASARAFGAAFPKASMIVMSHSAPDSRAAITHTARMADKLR
Series [7] can be described thus: Inhibition of recombinant bacterial SPM-1 expressed in Escherichia coli BL21 (DE3) cells using FC5 as substrate preincubated for 10 mins prior to substrate addition by fluorescence-based assay. Also noted: species or system Bacteria.
Series [8] in a line: Inhibition of recombinant bacterial Bc2 expressed in Escherichia coli BL21 (DE3) cells using FC5 as substrate preincubated for 10 mins prior to substrate addition by fluorescence-based assay. Also noted: species or system Bacteria.
Series [9] has as its system Pseudomonas aeruginosa PAO1. The series can be described thus: Inhibition of recombinant Psedomonas aeruginosa PAO1 N-terminal His-tagged AmpC expressed in Escherichia coli BL21 (DE3) cells using FC5 as substrate preincubated up to 360 mins prior to substrate addition in presence or absence of Triton X-100 by fluorescence-based assay.
Another series deals with Beta-lactamase TEM (Bacteria, UniProt P62593). Put plainly: Inhibition of recombinant N-terminal His-tagged bacterial Escherichia coli TEM-1 (24 to 286 residues) expressed in Escherichia coli BL21 (DE3) cells using FC5 as substrate preincubated up to 360 mins prior to substrate addition by fluorescence-based assay.
Beta-lactamase TEM, sequence (P62593 whole entry, the tested form may be a part): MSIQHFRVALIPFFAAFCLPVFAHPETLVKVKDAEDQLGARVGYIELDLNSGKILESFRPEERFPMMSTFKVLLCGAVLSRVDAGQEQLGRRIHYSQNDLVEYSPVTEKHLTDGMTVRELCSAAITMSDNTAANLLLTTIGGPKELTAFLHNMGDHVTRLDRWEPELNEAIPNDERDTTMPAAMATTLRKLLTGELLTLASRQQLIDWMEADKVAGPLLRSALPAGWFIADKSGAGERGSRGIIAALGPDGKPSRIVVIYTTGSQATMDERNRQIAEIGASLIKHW
Series [10] can be described thus: Binding affinity to recombinant bacterial VIM-2 expressed in Escherichia coli BL21 (DE3) cells by NMR method. Also on record: species or system Bacteria.
Another series addresses Beta-lactamase OXA-10 (Pseudomonas aeruginosa, UniProt P14489). Put plainly: Inhibition of recombinant Pseudomonas aeruginosa OXA-10 expressed in Escherichia coli BL21 (DE3) cells using FC5 as substrate preincubated up to 360 mins prior to substrate addition by fluorescence-based assay.
In a further series the test system is Bacteria. Put plainly: Binding affinity to recombinant bacterial VIM-2 expressed in Escherichia coli BL21 (DE3) cells at 50 uM in presence of 4-(2,3-dichlorophenyl)-2-(sulfonylmethyl)benzoic acid by NMR method.

Molecules are shown by their SMILES. Activity calls are given as the source filed them. The rule behind the calls is not given here.

Beta-lactamase OXA-10, sequence (P14489 whole entry): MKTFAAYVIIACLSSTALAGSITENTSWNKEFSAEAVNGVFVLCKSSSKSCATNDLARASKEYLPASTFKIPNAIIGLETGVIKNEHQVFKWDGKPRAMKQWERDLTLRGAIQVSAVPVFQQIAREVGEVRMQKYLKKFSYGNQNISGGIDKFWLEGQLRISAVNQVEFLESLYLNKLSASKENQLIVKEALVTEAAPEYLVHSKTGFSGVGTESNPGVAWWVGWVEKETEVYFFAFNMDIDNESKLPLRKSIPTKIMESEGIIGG

As for `O=C(O)c1ccc(-c2ccccc2C(F)(F)F)cc1CS`, the IC50 was 480 nM in [1], 150 nM in series [2] and 8820 nM in series [3].
As for `O=C(O)c1ccc(-c2ccccc2)cc1CS`, the IC50 in [1] worked out at 230 nM; in [2], 230 nM; in series [3] it was 5590 nM; on 5' exonuclease Apollo, 149000 nM. Further, the Drug metabolism entry in the series on Liver is listed as “Metabolite_Detected”. Also, in [4], the solubility result is “Soluble”. In addition, the MIC in [5] turned out to be 16 µg/mL; in series [6], 32 µg/mL.
In the case of `CCc1ccc(-c2ccc(C(=O)O)c(CS)c2)cc1`, the results for the IC50 in series [1], in [2] and in [3] were 50 nM, 100 nM and 570 nM, respectively. Further, the MIC in series [5] was 32 µg/mL; in series [6] it was 64 µg/mL.
For `O=C(O)c1ccc(-c2cccc(Cl)c2)cc1CS`, the IC50 was 140 nM in series [1]; 70 nM in [2]; 310 nM in series [3]; 780 to 7800 nM in series [7]; 780 to 7800 nM in series [8]; 268000 nM against 5' exonuclease Apollo.
On to `O=C(O)c1ccc(Br)cc1CS`, for which the figures for the IC50 in series [1], in series [2] and in series [3] were 800 nM, 170 nM and more than 100000 nM, respectively. Further, the MIC in series [5] turned out to be 32 µg/mL; in [6] it was 64 µg/mL.
Take `O=C(O)c1ccc(-c2cccc(Cl)c2Cl)cc1CS`: the concentration for half-maximal inhibition (IC50) was 370 nM in series [1]; 40 nM in series [2]; 1160 nM in series [3]; 5500 nM at Beta-lactamase TEM; 37300 nM at Beta-lactamase OXA-10. Further, the inhibition entry in series [9] was “Active”. Moreover, the Kd in series [10] is less than 1000 nM.
With `O=C(O)c1ccc(-c2ccc(F)cc2)cc1CS`, the IC50 in series [1] was 300 nM; in [2], 230 nM; in series [3], 710 nM; in [7] it was 780 to 7800 nM; in [8] it was 780 to 7800 nM; at Beta-lactamase TEM, 32800 nM.
For `O=C(O)c1ccc(-c2cc(C(F)(F)F)cc(C(F)(F)F)c2)cc1CS`, the results for the concentration for half-maximal inhibition (IC50) in series [1], in [2] and in series [3] were 1720 nM, 450 nM and 44000 nM, respectively. In the series with Bacteria, the outcome was inactive. In addition, the MIC in [5] and in series [6] was more than 128 µg/mL throughout.
For `O=C(O)c1ccc(-c2cccc(F)c2)cc1CS`, the IC50 is 390 nM in series [1]; 200 nM in [2]; 590 nM in series [3]; 780 to 7800 nM in series [7]; 780 to 7800 nM in series [8]; 185000 nM against 5' exonuclease Apollo.
In the case of `O=C(O)c1ccc(-c2ccccc2Cl)cc1CS`, the IC50 is 300 nM in [1]; 180 nM in series [2]; 2850 nM in series [3]; 780 to 7800 nM in series [7]; 780 to 7800 nM in [8]. Also, the inhibition result in series [9] was “Active”.
As to `CCOc1cccc(-c2ccc(C(=O)O)c(CS)c2)c1`, the figures for the IC50 in series [1], in series [2] and in series [3] were 320 nM, 180 nM and 7590 nM, respectively. Moreover, the values for the MIC in [5] and in series [6] were 64 µg/mL and 16 µg/mL, respectively.
Taken in the same sequence, the figures for `O=C(O)c1ccc(-c2ccco2)cc1CS` were 390 nM, 360 nM, 10200 nM, 32 µg/mL and 64 µg/mL.
Consider `O=C(O)c1ccc(-c2ccc(Cl)cc2)cc1CS`, for which the half-maximal inhibitory concentration (IC50) was 60 nM in series [1]; 100 nM in series [2]; 420 nM in series [3]; 780 to 7800 nM in series [7]; 780 to 7800 nM in series [8].
`O=C(O)c1ccc(-c2ccsc2)cc1CS`: the values for the IC50 in series [1], in [2] and in series [3] were 180 nM, 170 nM and 6780 nM, respectively. Further, the MIC in [5] was 16 µg/mL; in series [6] it was 8 µg/mL.
The corresponding values for `O=C(O)c1ccc(-c2ccc3ccccc3c2)cc1CS` are 220 nM, 70 nM, 2420 nM, 32 µg/mL and 32 µg/mL.
Take `O=C(O)Cc1ccccc1S`: the IC50 in [2] was more than 100000 nM.
Same read-out and setting: the result for `O=C1SCc2cc(-c3ccccc3)ccc21` reads more than 100000 nM.
